From patent US20040266732A1, “Therapeutic agents, methods, and treatments” (priority 2002, published 2004) come the findings set out here.

SMILES strings stand for the structures.

Test [1] concerns HOP-92. Briefly: Anchorage-independent colony-forming assay. The class given is cell-based, human. The note with it: for % Inhibition: colonies Day 14. The method, then:
(§1) Testing was conducted employing standard tissue culture techniques and an anchorage-independent colony-forming assay.
(§2) MT103 was tested against the lung carcinoma cell lines NCI-H226, NCI-H522, and HOP-92. An anchorage-independent colony-forming assay was employed. For the experiment, the cells were harvested, centrifuged to remove the media, and suspended in Iscove's Modified Dulbecco's Medium (IMDM). Samples were taken to determine cell density. The cell count was determined with a Coulter Model Z1 cell counter and viability was measured with propidium iodide staining followed by analysis on a Coulter EPICS XL flow cytometer. Each cell line was plated at 1×10^5 cells per dish (35 mm) in IMDM with 20% FBS and 1% methylcellulose containing the appropriate concentration of test compound or DMSO control. Five concentrations of each compound and a DMSO control were tested in each of the three cell lines. The colonies per plate were counted on Day 14 after the initiation of treatment. The cell lines were propagated under sterile conditions and incubated at 37° C. in HEPA-filtered CO2 tissue culture incubators with 5% CO2 and 95% humidity. The cell line was subcultured weekly to bi-weekly and used in experiments. The test compounds were kept refrigerated under light protected conditions until dissolved in DMSO.
(§3) Anticellular effects of the compounds on the tumor line were assessed with a colony-forming assay. Briefly, cell were harvested and adjusted to 3×10^6 viable cells/mL in IMDM. Compounds (200×) were prepared in DMSO and serially diluted in DMSO to give appropriate testing concentrations. Cells (100 μL), compound or DMSO control (16.5 μL) and IMDM (183.5 μL) were added to the appropriate assay tubes (12×75 mm) containing 3 mL of complete media, IMDM with 20% FBS and 1% methylcellulose. Tubes were then vortexed and 1.1 mL of the cell suspension was added to each of two 35 mm dishes. These dishes were then incubated for 14 days in HEPA-filtered CO2 tissue culture incubators with 5% CO2 and 95% humidity. The colonies in each dish were then counted and the duplicates were averaged and reported

Test [2] has as its system NCI-H226. Briefly: Anchorage-independent colony-forming assay. The class given is cell-based, human. The following applies: for % Inhibition: colonies Day 14. The method, then:
as §1, §2, §3

Test [3] concerns NCI-H522. Briefly: Anchorage-independent colony-forming assay. The format is cell-based, human. The note with it: for % Inhibition: colonies Day 14. Here is the method:
as §1, §2, §3

Test [4] deals with A549 (an adenocarcinoma). Description: Induced-tumor NOD/SCID mouse model, A549. The format is in vivo, NOD/SCID mice. Here is the method: In another experiment, NOD/SCID mice, (NOD.CB17-Prkdcscid/J) were treated over a time course with 60 mg/kg of MT103 or a sham treatment, and a different lung cancer cell line was used, A549 (an adenocarcinoma), instead of NCI-H226 (a squamous carcinoma).

Broadly, the IC50 is the concentration needed to halve the response being measured. A low value points to inhibition by little substance. Usually % Inhibition stands for the drop in the measured response relative to a control, in per cent. Low values mean a weak effect, high ones a strong effect. On to `CC1(C)C2CC[C@@]1(CS(=O)(=O)N(C1CCCCC1)C1CCCCC1)C(O)C2` (some centres unmarked) [MT103], for which the IC50 in test [1] (HOP-92, colony-forming assay) was determined as 24.2 µM; in test [2] (NCI-H226, colony-forming assay), 8.39 µM; in test [3] (NCI-H522, colony-forming assay), 81.7 µM. Besides, the “% Inhibition” value in test [1] (HOP-92, 0.8 μM) is 0%; in test [1] (HOP-92, 4 μM) it was 0%; in test [1] (HOP-92, 20 μM) it was 43.3%; in test [1] (HOP-92, 100 μM) it was 100%; in test [1] (HOP-92, 500 μM), 100%; in test [2] (NCI-H226, 0.8 μM), 3.1%. For the same molecule, the “% Inhibition” value in test [2] (NCI-H226, 4 μM) turned out to be 36.7%; in test [2] (NCI-H226, 20 μM), 65.6%; in test [2] (NCI-H226, 100 μM) it was 92.2%; in test [2] (NCI-H226, 500 μM) it was 99.7%; in test [3] (NCI-H522, 0.8 μM) it was 0%; in test [3] (NCI-H522, 4 μM), 0%. For the same molecule, the “% Inhibition” value in test [3] (NCI-H522, 20 μM) amounted to 0%; in test [3] (NCI-H522, 100 μM) it was 57.2%; in test [3] (NCI-H522, 500 μM) it was 100%. In addition, the “−logGI50 value” is on record as 4.6 in test [1] (HOP-92, see Table 5); 5.1 in test [2] (NCI-H226, see Table 5); 4.1 in test [3] (NCI-H522, see Table 5). For the same molecule, the “onset of tumor growth” value in test [4] (60 mg/kg versus sham) was “delayed onset of tumor growth”. Further, the “tumor size versus control” value in test [4] (60 mg/kg, t=30 days) is reported as “significantly smaller than the control groups”.
